Reference: PubChem BioAssay AID1845202 (Molecular Pharmacology Branch, DTP, NCI, 2023)

Test system: DMS 114 tumor spheroids, viability % test/control
Test: Anticancer human tumor DMS 114 cell line growth inhibition;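 further: spheroids exposed to compounds for 7 days before read-out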;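 on viability, T/C: luminescence used as a proxy for viable cells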
Settings: spheroids with HUVEC and MSC; for IC50: curve of first compound; for viability, T/C: stronger effect = lower value
Outline: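 Single agents and combinations were tested on spheroids built from tumor cells plus HUVEC and hMSC, at half-log dilutions starting at or near clinical Cmax, else 10 microM; final DMSO 0.25% (v/v).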

[1] = second compound 1 µM, first compound 0.0316 µM
[2] = second compound 1 µM, first compound 0.1 µM
[3] = second compound 1 µM, first compound 0.316 µM
[4] = second compound 1 µM, first compound 1 µM
[5] = second compound 1 µM, first compound 3.16 µM
[6] = second compound 1 µM, first compound 10 µM
[7] = second compound 3.16 µM, first compound 0.0316 µM
[8] = second compound 3.16 µM, first compound 0.1 µM
[9] = second compound 3.16 µM, first compound 0.316 µM
[10] = second compound 3.16 µM, first compound 1 µM
[11] = second compound 3.16 µM, first compound 3.16 µM
[12] = second compound 3.16 µM, first compound 10 µM
[13] = second compound 10 µM, first compound 0.0316 µM
[14] = second compound 10 µM, first compound 0.1 µM
[15] = second compound 10 µM, first compound 0.316 µM
[16] = second compound 10 µM, first compound 1 µM
[17] = second compound 10 µM, first compound 3.16 µM
[18] = second compound 10 µM, first compound 10 µM
[19] = second compound 31.6 µM, first compound 0.0316 µM
[20] = second compound 31.6 µM, first compound 0.1 µM
[21] = second compound 31.6 µM, first compound 0.316 µM
[22] = second compound 31.6 µM, first compound 1 µM
[23] = second compound 31.6 µM, first compound 3.16 µM
[24] = second compound 31.6 µM, first compound 10 µM
[25] = second compound 100 µM, first compound 0.0316 µM
[26] = second compound 100 µM, first compound 0.1 µM
[27] = second compound 100 µM, first compound 0.316 µM
[28] = second compound 100 µM, first compound 1 µM
[29] = second compound 100 µM, first compound 3.16 µM
[30] = second compound 100 µM, first compound 10 µM

SMILES | IC50 (second compound 1 µM) [µM] | IC50 (second compound 3.16 µM) [µM] | IC50 (second compound 10 µM) [µM] | IC50 (second compound 31.6 µM) [µM] | IC50 (second compound 100 µM) [µM] | viability, T/C [1] [%] | viability, T/C [2] [%] | viability, T/C [3] [%] | viability, T/C [4] [%] | viability, T/C [5] [%] | viability, T/C [6] [%] | viability, T/C [7] [%] | viability, T/C [8] [%] | viability, T/C [9] [%] | viability, T/C [10] [%] | viability, T/C [11] [%] | viability, T/C [12] [%] | viability, T/C [13] [%] | viability, T/C [14] [%] | viability, T/C [15] [%] | further results
CC1COCCN1c1cc(-c2ccnn2C)c2ccnc(-c3ccn[nH]3)c2n1 (stereo not given) + Cn1nnc2c(C(N)=O)ncn2c1=O | 0.0443 | 0.0558 | 0.0339 | < 0.0316 | < 0.0316 | 56.6 | 33.9 | 22.8 | 11.8 | 10.1 | 10.4 | 63 | 35.4 | 24.9 | 13.2 | 9.36 | 10.9 | 51 | 35.5 | 21.7 | viability, T/C [16]: 11.9%; viability, T/C [17]: 10.2%; viability, T/C [18]: 11.7%; viability, T/C [19]: 36.9%; viability, T/C [20]: 30.3%; viability, T/C [21]: 20.5%; viability, T/C [22]: 13.5%; viability, T/C [23]: 9.89%; viability, T/C [24]: 10.1%; viability, T/C [25]: 24%; viability, T/C [26]: 21.3%; viability, T/C [27]: 16.1%; viability, T/C [28]: 10.8%; viability, T/C [29]: 8.42%; viability, T/C [30]: 10.2%
COc1cc(C)[nH]c(=O)c1CN1CCc2c(Cl)cc(C(OC)C3COC3)c(Cl)c2C1=O (stereo not given) + Cn1nnc2c(C(N)=O)ncn2c1=O | > 10 | > 10 | > 10 | > 10 | > 10 | 103 | 93.3 | 82.7 | 78.4 | 73 | 71 | 109 | 97.1 | 91 | 82.3 | 76.5 | 71.7 | 115 | 99.5 | 93.1 | viability, T/C [16]: 82%; viability, T/C [17]: 80.5%; viability, T/C [18]: 70.1%; viability, T/C [19]: 102%; viability, T/C [20]: 103%; viability, T/C [21]: 86.5%; viability, T/C [22]: 84.2%; viability, T/C [23]: 70.1%; viability, T/C [24]: 67.5%; viability, T/C [25]: 90.7%; viability, T/C [26]: 95.6%; viability, T/C [27]: 73.3%; viability, T/C [28]: 64.3%; viability, T/C [29]: 61.2%; viability, T/C [30]: 57.1%
Cc1cc(C)c(CNC(=O)c2cc(-c3ccc(CN4CCOCC4)cc3)cc3c2cnn3C2CCCC2)c(=O)[nH]1 + Cn1nnc2c(C(N)=O)ncn2c1=O | > 10 | > 10 | > 10 | > 10 | > 10 | 100 | 103 | 104 | 110 | 110 | 64.3 | 110 | 108 | 108 | 114 | 120 | 69.3 | 110 | 106 | 111 | viability, T/C [16]: 115%; viability, T/C [17]: 120%; viability, T/C [18]: 65.9%; viability, T/C [19]: 113%; viability, T/C [20]: 107%; viability, T/C [21]: 109%; viability, T/C [22]: 111%; viability, T/C [23]: 103%; viability, T/C [24]: 65.1%; viability, T/C [25]: 103%; viability, T/C [26]: 103%; viability, T/C [27]: 98.8%; viability, T/C [28]: 90.1%; viability, T/C [29]: 80.4%; viability, T/C [30]: 51.6%
[2H]c1nc(C)nc([2H])c1-c1cc(NC[C@@H](C)c2cccc3c(C(=O)NC)ccnc23)ncn1 + Cn1nnc2c(C(N)=O)ncn2c1=O | > 10 | > 10 | > 10 | > 10 | > 10 | 94.5 | 104 | 98.4 | 99.5 | 97.3 | 98.5 | 108 | 100 | 99.7 | 102 | 99.9 | 101 | 110 | 109 | 98.2 | viability, T/C [16]: 110%; viability, T/C [17]: 95.5%; viability, T/C [18]: 94.8%; viability, T/C [19]: 104%; viability, T/C [20]: 99%; viability, T/C [21]: 113%; viability, T/C [22]: 107%; viability, T/C [23]: 110%; viability, T/C [24]: 95.2%; viability, T/C [25]: 93.3%; viability, T/C [26]: 105%; viability, T/C [27]: 98.3%; viability, T/C [28]: 94.7%; viability, T/C [29]: 84.7%; viability, T/C [30]: 87.6%
